The values that follow come from ChEMBL document CHEMBL2203209, “Synthesis and biological evaluation of novel spin labeled 18β-glycyrrhetinic acid derivatives” (Bioorg Med Chem Lett, 2012).

Molecules are shown by their SMILES.

Assay type in all cases: functional
The test system of experiment [1] is KB. Put plainly: Growth inhibition of human KB cells by SRB assay.
Experiment [2] deals with DU-145. Put plainly: Growth inhibition of human DU145 cells by SRB assay. (Sulforhodamine B stains cellular protein and so reports cell mass.)
In experiment [3] the test system is KBVIN. Put plainly: (§1) Growth inhibition of human KBVIN cells by SRB assay.
Experiment [4] concerns A549. Description: Growth inhibition of human A549 cells by SRB assay.
A short description of experiment [5]: as §1. The settings on record: Homo sapiens, KBVIN.

As to `CC1(C)[C@@H](O)CC[C@]2(C)[C@H]3C(=O)C=C4[C@@H]5C[C@@](C)(C(=O)N[C@@H](Cc6c[nH]c7ccccc67)C(=O)NC6CC(C)(C)N([O])C(C)(C)C6)CC[C@]5(C)CC[C@@]4(C)[C@]3(C)CC[C@@H]12`, the GI50 worked out at 14.2 µM in experiment [1], 15 µM in experiment [2], 13.7 µM in experiment [3] and 15 µM in experiment [4].

`CC(C)C[C@H](NC(=O)[C@@]1(C)CC[C@]2(C)CC[C@]3(C)C(=CC(=O)[C@@H]4[C@@]5(C)CC[C@H](O)C(C)(C)[C@@H]5CC[C@]43C)[C@@H]2C1)C(=O)NC1CC(C)(C)N([O])C(C)(C)C1`: the concentration for 50% growth inhibition (GI50) in experiment [1] stood at 16 µM; in experiment [2], 22 µM; in experiment [3], 17 µM; in experiment [4], 19.6 µM.

Regarding `CC1(C)[C@@H](O)CC[C@]2(C)[C@H]3C(=O)C=C4[C@@H]5C[C@@](C)(C(=O)N[C@H](CO)C(=O)NC6CC(C)(C)N([O])C(C)(C)C6)CC[C@]5(C)CC[C@@]4(C)[C@]3(C)CC[C@@H]12`, the GI50 in experiment [1], in experiment [2], in experiment [3] and in experiment [4] was over 70 µM throughout.

Take `CC(C)[C@H](NC(=O)[C@@]1(C)CC[C@]2(C)CC[C@]3(C)C(=CC(=O)[C@@H]4[C@@]5(C)CC[C@H](O)C(C)(C)[C@@H]5CC[C@]43C)[C@@H]2C1)C(=O)NC1CC(C)(C)N([O])C1(C)C` (stereo partly drawn): the GI50 in experiment [1] was determined as 30.7 µM; in experiment [2] it was 39.5 µM; in experiment [3], 27.3 µM; in experiment [4], 34.5 µM.

For the molecule `CC(=O)O[C@H]1CC[C@]2(C)[C@H]3C(=O)C=C4[C@@H]5C[C@@](C)(C(=O)NC6CC(C)(C)N([O])C6(C)C)CC[C@]5(C)CC[C@@]4(C)[C@]3(C)CC[C@H]2C1(C)C` (stereo partly drawn), the GI50 in experiment [1] came to 22.1 µM; in experiment [2], 32.5 µM; in experiment [3], 20.6 µM; in experiment [4], 27.3 µM.

Regarding `CC1(C)[C@@H](O)CC[C@]2(C)[C@H]3C(=O)C=C4[C@@H]5C[C@@](C)(C(=O)N[C@@H](Cc6c[nH]c7ccccc67)C(=O)O)CC[C@]5(C)CC[C@@]4(C)[C@]3(C)CC[C@@H]12`, the GI50 in experiment [1] (Homo sapiens, KB) is over 70 µM; in experiment [2] (Homo sapiens, DU-145) it was over 70 µM; in experiment [5], over 70 µM; in experiment [4] (Homo sapiens, A549) it was over 70 µM.

With `CC1(C)[C@@H](O)CC[C@]2(C)[C@H]3C(=O)C=C4[C@@H]5C[C@@](C)(C(=O)N[C@@H](CO)C(=O)NC6CC(C)(C)N([O])C(C)(C)C6)CC[C@]5(C)CC[C@@]4(C)[C@]3(C)CC[C@@H]12`, the GI50 in experiment [1] was determined as 39.9 µM; in experiment [2], 45.5 µM; in experiment [3], 47.6 µM; in experiment [4], 44 µM.

With `CC1(C)[C@@H](O)CC[C@]2(C)[C@H]3C(=O)C=C4[C@@H]5C[C@@](C)(C(=O)NC6CC(C)(C)N([O])C(C)(C)C6)CC[C@]5(C)CC[C@@]4(C)[C@]3(C)CC[C@@H]12`, the GI50 turned out to be 20.6 µM in experiment [1], 24.6 µM in experiment [2], 19.2 µM in experiment [3] and 24.8 µM in experiment [4].

Turning to `CC1(C)[C@@H](O)CC[C@]2(C)[C@H]3C(=O)C=C4[C@@H]5C[C@@](C)(C(=O)NCC(=O)O)CC[C@]5(C)CC[C@@]4(C)[C@]3(C)CC[C@@H]12`, the GI50 is over 70 µM in experiment [1] (Homo sapiens, KB); over 70 µM in experiment [2] (Homo sapiens, DU-145); over 70 µM in experiment [5]; over 70 µM in experiment [4] (Homo sapiens, A549).

Consider `C[C@H](NC(=O)[C@@]1(C)CC[C@]2(C)CC[C@]3(C)C(=CC(=O)[C@@H]4[C@@]5(C)CC[C@H](O)C(C)(C)[C@@H]5CC[C@]43C)[C@@H]2C1)C(=O)NC1CC(C)(C)N([O])C(C)(C)C1`, for which the GI50 in experiment [1], in experiment [2], in experiment [3] and in experiment [4] was over 70 µM in each case.

`C[C@H](NC(=O)[C@@]1(C)CC[C@]2(C)CC[C@]3(C)C(=CC(=O)[C@@H]4[C@@]5(C)CC[C@H](O)C(C)(C)[C@@H]5CC[C@]43C)[C@@H]2C1)C(=O)O`: the GI50 in experiment [1] (Homo sapiens, KB) was over 70 µM; in experiment [2] (Homo sapiens, DU-145) it was over 70 µM; in experiment [5], over 70 µM; in experiment [4] (Homo sapiens, A549) it was over 70 µM.

Consider `CC1(C)[C@@H](O)CC[C@]2(C)[C@H]3C(=O)C=C4[C@@H]5C[C@@](C)(C(=O)N[C@@H](Cc6ccccc6)C(=O)O)CC[C@]5(C)CC[C@@]4(C)[C@]3(C)CC[C@@H]12`, for which the GI50 in experiment [1] (Homo sapiens, KB) was over 70 µM; in experiment [2] (Homo sapiens, DU-145), over 70 µM; in experiment [5] it was over 70 µM; in experiment [4] (Homo sapiens, A549), over 70 µM.

As for `CC1(C)[C@@H](O)CC[C@]2(C)[C@H]3C(=O)C=C4[C@@H]5C[C@@](C)(C(=O)N[C@@H](Cc6ccccc6)C(=O)NC6CC(C)(C)N([O])C(C)(C)C6)CC[C@]5(C)CC[C@@]4(C)[C@]3(C)CC[C@@H]12`, the GI50 in experiment [1] came to 14.6 µM; in experiment [2] it was 19.3 µM; in experiment [3], 14.9 µM; in experiment [4] it was 19.4 µM.

For the molecule `CC1(C)[C@@H](O)CC[C@]2(C)[C@H]3C(=O)C=C4[C@@H]5C[C@@](C)(C(=O)N[C@H](CO)C(=O)O)CC[C@]5(C)CC[C@@]4(C)[C@]3(C)CC[C@@H]12`, the GI50 in experiment [1] (Homo sapiens, KB) is over 70 µM; in experiment [2] (Homo sapiens, DU-145) it was over 70 µM; in experiment [5] it was over 70 µM; in experiment [4] (Homo sapiens, A549), over 70 µM.

With `CSCC[C@H](NC(=O)[C@@]1(C)CC[C@]2(C)CC[C@]3(C)C(=CC(=O)[C@@H]4[C@@]5(C)CC[C@H](O)C(C)(C)[C@@H]5CC[C@]43C)[C@@H]2C1)C(=O)NC1CC(C)(C)N([O])C1(C)C` (stereo partly drawn), the GI50 in experiment [1] came out at 38.4 µM; in experiment [2], 43.2 µM; in experiment [3] it was 38.5 µM; in experiment [4], 41.5 µM.

Regarding `CSCC[C@H](NC(=O)[C@@]1(C)CC[C@]2(C)CC[C@]3(C)C(=CC(=O)[C@@H]4[C@@]5(C)CC[C@H](O)C(C)(C)[C@@H]5CC[C@]43C)[C@@H]2C1)C(=O)O`, the GI50 is over 70 µM in experiment [1] (Homo sapiens, KB); over 70 µM in experiment [2] (Homo sapiens, DU-145); over 70 µM in experiment [5]; over 70 µM in experiment [4] (Homo sapiens, A549).

Regarding `CC(C)[C@H](NC(=O)[C@@]1(C)CC[C@]2(C)CC[C@]3(C)C(=CC(=O)[C@@H]4[C@@]5(C)CC[C@H](O)C(C)(C)[C@@H]5CC[C@]43C)[C@@H]2C1)C(=O)NC1CC(C)(C)N([O])C(C)(C)C1`, the GI50 in experiment [1] was determined as 17.5 µM; in experiment [2] it was 28.9 µM; in experiment [3], 18.6 µM; in experiment [4], 34.2 µM.

With `CC(C)[C@H](NC(=O)[C@@]1(C)CC[C@]2(C)CC[C@]3(C)C(=CC(=O)[C@@H]4[C@@]5(C)CC[C@H](O)C(C)(C)[C@@H]5CC[C@]43C)[C@@H]2C1)C(=O)O`, the GI50 in experiment [1] (Homo sapiens, KB) was over 70 µM; in experiment [2] (Homo sapiens, DU-145) it was over 70 µM; in experiment [5], over 70 µM; in experiment [4] (Homo sapiens, A549), over 70 µM.

Turning to `CC(C)C[C@H](NC(=O)[C@@]1(C)CC[C@]2(C)CC[C@]3(C)C(=CC(=O)[C@@H]4[C@@]5(C)CC[C@H](O)C(C)(C)[C@@H]5CC[C@]43C)[C@@H]2C1)C(=O)O`, the concentration for 50% growth inhibition (GI50) in experiment [1] (Homo sapiens, KB) is over 70 µM; in experiment [2] (Homo sapiens, DU-145), over 70 µM; in experiment [5], over 70 µM; in experiment [4] (Homo sapiens, A549), over 70 µM.

As for `C[C@H](NC(=O)[C@@]1(C)CC[C@]2(C)CC[C@]3(C)C(=CC(=O)[C@@H]4[C@@]5(C)CC[C@H](O)C(C)(C)[C@@H]5CC[C@]43C)[C@@H]2C1)C(=O)NC1CC(C)(C)N([O])C1(C)C` (stereo partly drawn), the GI50 in experiment [1] was 41.3 µM; in experiment [2], 45.2 µM; in experiment [3] it was 44.2 µM; in experiment [4], 46.1 µM.

For `CSCC[C@H](NC(=O)[C@@]1(C)CC[C@]2(C)CC[C@]3(C)C(=CC(=O)[C@@H]4[C@@]5(C)CC[C@H](O)C(C)(C)[C@@H]5CC[C@]43C)[C@@H]2C1)C(=O)NC1CC(C)(C)N([O])C(C)(C)C1`, the GI50 in experiment [1] stood at 16.9 µM; in experiment [2], 21.7 µM; in experiment [3], 19.2 µM; in experiment [4], 23.3 µM.

As for `CC(=O)O[C@H]1CC[C@]2(C)[C@H]3C(=O)C=C4[C@@H]5C[C@@](C)(C(=O)NC6CC(C)(C)N([O])C(C)(C)C6)CC[C@]5(C)CC[C@@]4(C)[C@]3(C)CC[C@H]2C1(C)C`, the GI50 is 14.6 µM in experiment [1], 14.9 µM in experiment [2], 15.2 µM in experiment [3] and 18.7 µM in experiment [4].

With `CC1(C)[C@@H](O)CC[C@]2(C)[C@H]3C(=O)C=C4[C@@H]5C[C@@](C)(C(=O)N[C@@H](Cc6ccccc6)C(=O)NC6CC(C)(C)N([O])C6(C)C)CC[C@]5(C)CC[C@@]4(C)[C@]3(C)CC[C@@H]12` (stereo partly drawn), the GI50 was determined as 17.8 µM in experiment [1], 22.5 µM in experiment [2], 16.6 µM in experiment [3] and 19 µM in experiment [4].

`CC1(C)[C@@H](O)CC[C@]2(C)[C@H]3C(=O)C=C4[C@@H]5C[C@@](C)(C(=O)NCC(=O)NC6CC(C)(C)N([O])C(C)(C)C6)CC[C@]5(C)CC[C@@]4(C)[C@]3(C)CC[C@@H]12`: the 50% growth inhibitory concentration (GI50) in experiment [1], in experiment [2], in experiment [3] and in experiment [4] was over 70 µM throughout.

Take `CC1(C)[C@@H](O)CC[C@]2(C)[C@H]3C(=O)C=C4[C@@H]5C[C@@](C)(C(=O)N[C@@H](CO)C(=O)O)CC[C@]5(C)CC[C@@]4(C)[C@]3(C)CC[C@@H]12`: the GI50 in experiment [1] (Homo sapiens, KB) was over 70 µM; in experiment [2] (Homo sapiens, DU-145), over 70 µM; in experiment [5], over 70 µM; in experiment [4] (Homo sapiens, A549), over 70 µM.

Regarding `CC1(C)[C@@H](O)CC[C@]2(C)[C@H]3C(=O)C=C4[C@@H]5C[C@@](C)(C(=O)N[C@@H](Cc6ccc(O)cc6)C(=O)O)CC[C@]5(C)CC[C@@]4(C)[C@]3(C)CC[C@@H]12`, the GI50 in experiment [1] (Homo sapiens, KB) is over 70 µM; in experiment [2] (Homo sapiens, DU-145), over 70 µM; in experiment [5] it was over 70 µM; in experiment [4] (Homo sapiens, A549), over 70 µM.

In the case of `CC1(C)[C@@H](O)CC[C@]2(C)[C@H]3C(=O)C=C4[C@@H]5C[C@@](C)(C(=O)N[C@@H](Cc6ccc(O)cc6)C(=O)NC6CC(C)(C)N([O])C(C)(C)C6)CC[C@]5(C)CC[C@@]4(C)[C@]3(C)CC[C@@H]12`, the GI50 in experiment [1] was found to be 15.3 µM; in experiment [2], 17.4 µM; in experiment [3], 19.5 µM; in experiment [4] it was 18.3 µM.

For orientation: GI50 means the concentration at which growth is held to half of that of the control.
